# According to US20080008760A1, “Functionalized carbon nanotubes, a process for preparing the same and their use in medicinal chemistry” (priority 2003, published 2008):
# How the values were obtained:
# [1] = system: Murine 3T3 cells (ATCC CCL-92); assay: Cytofluorometry: penetration of FITC functionalized nanotube into cells; format: cell-based; conditions: 1 μM, 5 μM and 10 μM, 1 hour
# [2] = system: Murine 3T3 cells (ATCC CCL-92); assay: Fluorescent and confocal microscopy: penetration of FITC functionalized nanotubes into cells; format: cell-based; conditions: 1 μM, 5 μM and 10 μM; FIG. 3: 40 minutes incubation
smiles,measurement,setting,value
O=C(O)c1cc(NC(=S)NCCOCCOCCN2CCCC2)ccc1-c1c2ccc(=O)cc-2oc2cc(O)ccc12 [formula (L)],penetration into 3T3 cells (cytofluorometry),[1],readily penetrate into 3T3 cells
same,"penetration into 3T3 cells (fluorescence microscopy, FIG. 3)",[2],have penetrated into 3T3 cells
